Data on seven molecules can be found in ChEMBL document CHEMBL3870306, “Selenoureido-iminosugars: A new family of multitarget drugs” (Eur J Med Chem, 2016).

As a reminder, the Ki is the equilibrium dissociation constant of an inhibitor or competing ligand from its target. As a reminder, the GI50 is the concentration that inhibits growth by half. A lower GI50 goes with greater sensitivity of the cells. Broadly, the Km is the substrate concentration at which the rate is half of its maximum. Broadly, the inhibition is the drop in the measured response relative to a control, in per cent. One may read the kcat as the maximal rate divided by the concentration of active sites. The term Vmax denotes the rate approached at saturating substrate.

Assay [1] in a line: Inhibition of Bakers yeast alpha-glucosidase using p-Nitrophenyl alpha-D-glucopyranoside as substrate. The arrangement: species or system Saccharomyces cerevisiae.
A short description of assay [2]: Inhibition of almond beta-glucosidase using p-Nitrophenyl beta-D-glucopyranoside as substrate. Also noted: species or system Prunus dulcis.
Assay [3] is described as follows: Antiproliferative activity against human A549 cells after 48 hrs by sulforhodamine B assay. The format is functional. The conditions noted are these: A549, 48 h. In general terms: In SRB staining, fixed cells bind dye roughly in proportion to their protein.
A short description of assay [4]: Antiproliferative activity against human HBL100 cells after 48 hrs by sulforhodamine B assay. The format is functional. The conditions noted are these: HBL-100, 48 h.
Assay [5] is described as follows: Competitive inhibition of almond beta-glucosidase using o-orp-nitrophenyl-glycopyranoside as substrate by Lineweaver-Burk plot method. The arrangement: species or system Prunus dulcis.
The nature of assay [6]: Glutathione peroxidase like activity assessed as hydrogen peroxide reduction by measuring compound Km measured for 180 sec in prescence of varying levels of Phsh by Hanes-Woof plot method.
Assay [7] can be described thus: Antiproliferative activity against human T47D cells after 48 hrs by sulforhodamine B assay. The format is functional.
Assay [8] can be described thus: Antiproliferative activity against human SW1573 cells after 48 hrs by sulforhodamine B assay. The conditions noted are these: SW1573, 48 h. The format is functional.
Assay [9] deals with T1, Alpha-mannosidase (Canavalia ensiformis) (UniProt C0HJB3).
T1 sequence (whole entry): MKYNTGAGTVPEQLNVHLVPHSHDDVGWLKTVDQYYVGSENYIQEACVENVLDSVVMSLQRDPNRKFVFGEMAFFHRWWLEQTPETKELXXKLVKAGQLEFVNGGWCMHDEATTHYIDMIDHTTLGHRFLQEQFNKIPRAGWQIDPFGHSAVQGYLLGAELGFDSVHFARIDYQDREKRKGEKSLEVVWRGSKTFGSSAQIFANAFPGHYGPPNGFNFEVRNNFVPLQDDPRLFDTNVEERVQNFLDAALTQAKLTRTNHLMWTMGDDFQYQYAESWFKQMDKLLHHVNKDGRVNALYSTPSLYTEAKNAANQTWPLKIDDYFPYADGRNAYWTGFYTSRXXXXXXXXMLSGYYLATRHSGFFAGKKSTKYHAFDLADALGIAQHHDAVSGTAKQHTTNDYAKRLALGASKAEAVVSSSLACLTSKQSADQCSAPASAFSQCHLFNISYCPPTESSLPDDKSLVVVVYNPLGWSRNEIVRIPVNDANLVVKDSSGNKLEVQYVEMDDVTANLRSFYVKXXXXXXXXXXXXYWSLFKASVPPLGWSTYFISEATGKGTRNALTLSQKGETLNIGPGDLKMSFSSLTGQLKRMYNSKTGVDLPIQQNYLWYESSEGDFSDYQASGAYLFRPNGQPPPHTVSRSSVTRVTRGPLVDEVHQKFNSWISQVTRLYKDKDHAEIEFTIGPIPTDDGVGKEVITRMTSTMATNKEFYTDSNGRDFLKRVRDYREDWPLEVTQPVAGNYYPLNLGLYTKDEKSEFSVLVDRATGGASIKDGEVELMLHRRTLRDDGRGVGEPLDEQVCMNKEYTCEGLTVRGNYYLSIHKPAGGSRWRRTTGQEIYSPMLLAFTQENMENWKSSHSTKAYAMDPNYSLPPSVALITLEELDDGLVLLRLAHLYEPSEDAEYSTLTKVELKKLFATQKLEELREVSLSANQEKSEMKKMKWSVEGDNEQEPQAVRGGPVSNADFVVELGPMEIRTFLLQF
The experiment in a line: Inhibition of jack bean alpha-mannosidase at 0.5 mM using o-orp-nitrophenyl-glycopyranoside as substrate measured every 30 sec for 3 mins relative to control.

A short description of assay [10]: Glutathione peroxidase like activity assessed as hydrogen peroxide reduction by measuring compound Kcat measured for 180 sec in prescence of varying levels of Phsh by Hanes-Woof plot method.
Assay [11] can be described thus: Inhibition of Bakers yeast alpha-glucosidase using o-orp-nitrophenyl-glycopyranoside as substrate by Lineweaver-Burk plot method. Also noted: species or system Saccharomyces cerevisiae.
Assay [12] can be described thus: Antiproliferative activity against human HeLa cells after 48 hrs by sulforhodamine B assay. The format is functional.
In another assay the test system is Helix pomatia. The experiment in a line: Inhibition of Helix-pomatia beta-mannosidase at 0.5 mM using o-orp-nitrophenyl-glycopyranoside as substrate measured every 30 sec for 3 mins relative to control.
The next assay deals with Saccharomyces cerevisiae. The experiment in a line: Inhibition of Bakers yeast alpha-glucosidase at 500 uM using o-orp-nitrophenyl-glycopyranoside as substrate measured for 120 sec relative to control.
Assay [13] deals with T2, Alpha-mannosidase (Canavalia ensiformis, UniProt C0HJB3).
T2 sequence (C0HJB3 whole entry): T1 sequence (whole entry)
The experiment in a line: Mixed-type inhibition of jack bean alpha-mannosidase assessed as enzyme-substrate-inhibitor complex using o-orp-nitrophenyl-glycopyranoside as substrate by Lineweaver-Burk plot method.

Another assay deals with Aspergillus oryzae. The experiment in a line: Inhibition of Aspergillus oryzae beta-galactosidase at 0.5 mM using o-orp-nitrophenyl-glycopyranoside as substrate measured for 120 sec relative to control.
Assay [14] deals with T3, Acetylcholinesterase (Electrophorus electricus, UniProt O42275). The experiment in a line: Mixed-type inhibition of electric eel acetylcholinesterase assessed as enzyme-substrate-inhibitor complex by Lineweaver-Burk plot method.
T3 sequence (O42275 whole entry): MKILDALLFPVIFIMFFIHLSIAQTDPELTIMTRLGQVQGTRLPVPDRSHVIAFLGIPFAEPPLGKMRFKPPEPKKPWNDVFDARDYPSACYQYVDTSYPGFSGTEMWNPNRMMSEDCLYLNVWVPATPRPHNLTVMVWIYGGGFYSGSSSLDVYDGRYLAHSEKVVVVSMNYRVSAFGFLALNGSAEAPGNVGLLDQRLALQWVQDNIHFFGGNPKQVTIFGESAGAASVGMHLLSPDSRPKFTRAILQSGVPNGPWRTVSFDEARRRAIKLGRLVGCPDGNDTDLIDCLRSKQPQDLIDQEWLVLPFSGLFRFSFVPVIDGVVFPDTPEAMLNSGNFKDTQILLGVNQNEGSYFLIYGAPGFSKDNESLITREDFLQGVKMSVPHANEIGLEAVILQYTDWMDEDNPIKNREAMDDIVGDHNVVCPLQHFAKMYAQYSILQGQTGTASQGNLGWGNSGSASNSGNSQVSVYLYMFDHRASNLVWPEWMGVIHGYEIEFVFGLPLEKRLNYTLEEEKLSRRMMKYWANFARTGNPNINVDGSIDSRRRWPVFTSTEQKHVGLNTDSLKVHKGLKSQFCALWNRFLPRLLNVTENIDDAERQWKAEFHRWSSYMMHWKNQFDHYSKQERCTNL
Another assay has as its system Escherichia coli. The experiment in a line: Inhibition of Escherichia coli beta-galactosidase at 0.5 mM using o-orp-nitrophenyl-glycopyranoside as substrate measured for 120 sec relative to control.
For assay [15], the target named is Alpha-galactosidase (Coffea arabica) (UniProt Q42656). The experiment in a line: Inhibition of green coffee beans alpha-galactosidase at 0.5 mM using o-orp-nitrophenyl-glycopyranoside as substrate measured for 120 sec relative to control.
Chain of Alpha-galactosidase (Coffea arabica) (Q42656 16-378 limits assumed): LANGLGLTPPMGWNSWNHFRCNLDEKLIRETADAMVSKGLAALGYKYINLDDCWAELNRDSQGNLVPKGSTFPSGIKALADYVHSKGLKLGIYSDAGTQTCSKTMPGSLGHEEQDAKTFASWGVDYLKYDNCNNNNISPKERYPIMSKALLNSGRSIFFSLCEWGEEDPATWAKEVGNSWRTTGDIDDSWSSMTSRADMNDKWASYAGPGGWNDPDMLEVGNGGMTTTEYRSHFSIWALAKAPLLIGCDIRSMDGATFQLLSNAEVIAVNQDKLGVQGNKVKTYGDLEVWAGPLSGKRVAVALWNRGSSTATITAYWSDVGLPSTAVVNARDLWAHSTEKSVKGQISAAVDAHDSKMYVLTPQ
Assay [16] has as its target T2, Alpha-mannosidase. The experiment in a line: Mixed-type inhibition of jack bean alpha-mannosidase assessed as enzyme-inhibitor complex using o-orp-nitrophenyl-glycopyranoside as substrate by Lineweaver-Burk plot method.
Assay [17] concerns the target Acetylcholinesterase (Electrophorus electricus) (UniProt O42275). The experiment in a line: Inhibition of electric eel acetylcholinesterase at 500 uM assessed as thep-nitrophenolate formation measured for 120 sec relative to control.
A short description of assay [18]: Glutathione peroxidase like activity assessed as hydrogen peroxide reduction by measuring Kcat to Kuncat ratio measured for 180 sec in prescence of varying levels of Phsh by Hanes-Woof plot method.
The subject of a further assay is Prunus dulcis. The experiment in a line: Inhibition of almond beta-glucosidase at 500 uM using o-orp-nitrophenyl-glycopyranoside as substrate measured for 120 sec relative to control.
Assay [19] is described as follows: Selectivity ratio of Ki for Bakers yeast alpha-glucosidase to Ki for almond beta-glucosidase.
The nature of assay [20]: Antiproliferative activity against human WiDr cells after 48 hrs by sulforhodamine B assay. The format is functional.
Assay [21] addresses T3, Acetylcholinesterase. The experiment in a line: Mixed-type inhibition of electric eel acetylcholinesterase assessed as enzyme-inhibitor complex by Lineweaver-Burk plot method.
Assay [22] in a line: Glutathione peroxidase like activity assessed as hydrogen peroxide reduction by measuring compound Vmax measured for 180 sec in prescence of varying levels of Phsh by Hanes-Woof plot method.
The nature of assay [23]: Glutathione peroxidase like activity assessed as hydrogen peroxide reduction by measuring reaction rate at 0.1 mM measured for 180 sec in presence of PhSH relative to control.
A short description of assay [24]: Glutathione peroxidase like activity assessed as hydrogen peroxide reduction by measuring reaction rate at 0.1 mM measured for 180 sec in presence of PhSH relative to (PhSe)2.
For assay [25], the target named is T2, Alpha-mannosidase. The experiment in a line: Inhibition of jack bean alpha-mannosidase using o-orp-nitrophenyl-glycopyranoside as substrate by Lineweaver-Burk plot method.

Chain of Acetylcholinesterase (Electrophorus electricus) (O42275 24-633 limits assumed): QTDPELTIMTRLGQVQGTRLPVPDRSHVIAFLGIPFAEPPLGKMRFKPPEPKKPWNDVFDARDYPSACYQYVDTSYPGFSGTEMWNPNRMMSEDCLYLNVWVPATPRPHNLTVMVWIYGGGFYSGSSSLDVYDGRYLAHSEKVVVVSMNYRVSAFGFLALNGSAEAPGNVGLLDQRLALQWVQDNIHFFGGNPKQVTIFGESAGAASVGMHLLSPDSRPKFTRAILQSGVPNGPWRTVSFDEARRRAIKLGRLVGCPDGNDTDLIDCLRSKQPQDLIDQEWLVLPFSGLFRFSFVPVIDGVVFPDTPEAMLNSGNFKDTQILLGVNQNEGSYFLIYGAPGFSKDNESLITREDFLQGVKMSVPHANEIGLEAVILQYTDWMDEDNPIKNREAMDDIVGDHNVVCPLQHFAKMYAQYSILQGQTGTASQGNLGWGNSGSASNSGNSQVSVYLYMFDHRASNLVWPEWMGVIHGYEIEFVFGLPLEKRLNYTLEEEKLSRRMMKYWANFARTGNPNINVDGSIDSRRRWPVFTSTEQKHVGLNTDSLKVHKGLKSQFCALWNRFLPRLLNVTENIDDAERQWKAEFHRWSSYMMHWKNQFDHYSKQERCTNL

Take `OC[C@H]1NC[C@H](O)[C@@H](O)[C@@H]1O` [DUVOGLUSTAT]: the Ki in assay [1] is 25 µM; in assay [2], 47 µM.

On to `OC[C@@H]1[C@@H](O)[C@H](O)[C@@H](O)CN1CCCCCNC(=[Se])Nc1ccc(Br)cc1`, for which the GI50 was found to be 7 µM in assay [3]; 7.6 µM in assay [4]; 12 µM in assay [7]; 24 µM in assay [8]; 27 µM in assay [12]; 21 µM in assay [20]. Further, the Ki was 1.6 µM in [5]; 30.7 µM in assay [11]; 290 µM on Alpha-mannosidase [13]; 11.2 µM on Acetylcholinesterase [14]; 390 µM at Alpha-mannosidase [16]; 5.8 µM on Acetylcholinesterase [21]. Also, the Km in assay [6] was 330 µM. For the same molecule, the inhibition in [9] is over 50%; in the assay on Helix pomatia it was 18%; in the assay on Saccharomyces cerevisiae, over 50%; in the assay on Aspergillus oryzae, 42%; in the assay with Escherichia coli, 12%; in assay [15], 7%. In addition, the inhibition (in assay [17]; with Prunus dulcis) was over 50% in each case. Also, the kcat in assay [10] came to 0.96 min⁻¹. Further, the Ratio in [18] worked out at 292. The Ratio Ki in assay [19] is under 36. Moreover, in [22], the Vmax worked out at 96.4 µM/min.

With `O=c1c2ccccc2[se]n1-c1ccccc1`, the fold change (FC) in [23] was 0.6.

In the case of `c1ccc([Se][Se]c2ccccc2)cc1`, the fold change (FC) in assay [23] worked out at 2.5. Also, the Km in [6] stood at 1110 µM. For the same molecule, the kcat in assay [10] amounted to 0.27 min⁻¹. In addition, the Ratio in [18] stood at 82. Moreover, in assay [22], the Vmax amounted to 27.3 µM/min.

For the molecule `Cc1ccc(NC(=[Se])NCCCCCN2C[C@H](O)[C@@H](O)[C@H](O)[C@H]2CO)cc1`, the 50% growth inhibitory concentration (GI50) is 45 µM in assay [3]; 76 µM in assay [4]; 68 µM in [7]; 79 µM in [8]; 75 µM in assay [12]; 97 µM in [20]. For the same molecule, the Ki in assay [5] came to 3.7 µM; in [11] it was 35 µM; on Acetylcholinesterase [14], 16.9 µM; on Acetylcholinesterase [21], 105 µM. Further, the inhibition in assay [9] is 46%; in the assay on Helix pomatia, 16%; in the assay on Saccharomyces cerevisiae, over 50%; in the assay on Aspergillus oryzae, 20%; in the assay with Escherichia coli it was 31%; in assay [15], 2%. For the same molecule, the inhibition (in [17]; in the assay with Prunus dulcis) was over 50% in each case.

Consider `c1ccc(COC[C@H]2NC[C@H](OCc3ccccc3)[C@@H](OCc3ccccc3)[C@@H]2OCc2ccccc2)cc1`, for which the fold change (FC) in [24] was 18; in assay [23] it was 23.6 to 46.1.

Turning to `COc1ccc(NC(=[Se])NCCCCCN2C[C@H](O)[C@@H](O)[C@H](O)[C@H]2CO)cc1`, the GI50 was 42 µM in [3]; 42 µM in assay [4]; 58 µM in assay [7]; 46 µM in [8]; 82 µM in assay [12]; over 100 µM in [20]. The Ki in assay [5] turned out to be 5.5 µM; in assay [11] it was 36 µM; on Alpha-mannosidase [25], 510 µM; at Acetylcholinesterase [14], 58.8 µM; on Acetylcholinesterase [21] it was 83.1 µM. Further, the Km in [6] is 410 µM. For the same molecule, the inhibition in assay [9] is over 50%; in the assay with Helix pomatia, 7%; with Saccharomyces cerevisiae, over 50%; in the assay on Aspergillus oryzae it was 29%; with Escherichia coli it was 15%; in assay [15], 20%. In addition, the inhibition (in assay [17]; with Prunus dulcis) was over 50% throughout. Moreover, the kcat in assay [10] amounted to 2.1 min⁻¹. In addition, the Ratio in assay [18] turned out to be 640. Moreover, the Vmax in assay [22] amounted to 211 µM/min.
